We go through one molecule from patent US20240197760A1, “ACTIVATORS OF INTEGRATED STRESS RESPONSE PATHWAY FOR PROTECTION AGAINST FERROPTOSIS” (Burke Neurological Institute, priority 2021, published 2024).

For one data set, the system named is Creb1, Bdnf, Rbbp4. In words: Plasticity gene expression by quantitative real time PCR in mouse primary neurons. Format: cell-based. As to the method:
Primary immature neuronal cultures were prepared from cerebral cortex of E14 embryos (day 14 of gestation) of CD1 mice under sterile conditions. Dissected cortices were incubated at 37° C. for 20 min in EBSS solution containing papain, L-cystine and EDTA, which was activated at 37 °C for 30 min and then was filtered through […] (Millipore, catalog number—SCGP00525). Cortices were then mechanically dissociated by trituration with glass pipettes. The rDNase was added in dissociated cells followed by incubation of these dissociated cells at 37 °C for 3 min. Thereafter, these cells were centrifuged at 2800 rpm for 5 min. Then supernatant was discarded, and cell were resuspended gently in a 5 ml mixture of EBSS and 10/10 solution (4:1 ratio). Then 5 ml of 10/10 solution was added gently on top and these resuspended cells were centrifuged at 2800 rpm for 10 min. Supernatant was again discarded and cells were resuspended in 10 ml MEM, Glutamax supplement (Thermo Fisher Scientific, Catalog number—41090036) containing 10% heat inactivated fetal bovine serum (Thermo Fisher Scientific, Catalog number—16140071), 5% heat inactivated horse serum (Thermo Fisher Scientific, Catalog number—26050088), and 1% penicillin/streptomycin (Thermo Fisher Scientific, Catalog number—15140122). Thereafter, resuspended cells were filtered through 70-micron cell strainer (Thomas Scientific, catalog number—4620F02) followed by their counting through Hemocytometer. Cells were, finally, plated at the density of 1 million cells/ml onto poly-D-Lysine (PDL; Sigma Aldrich, catalog number—P6407-10X5MG) coated pates and placed in CO2-buffered incubators at 37° C.
Total RNA was extracted from primary cortical neurons using NucleoSpin RNA II Kit (Clontech, Catalog number—740955-250). Thereafter, using the Taqman RNA-to-Ct, one step kit (Thermo Fisher Scientific, catalog number—4392938) and following the manufacturer's instructions, […] from each sample was mixed with the Taqman® Gene Expression Master Mix and Taqman® Gene Expression Assays for Creb1 (Catalog number—Mm00501607_m1), Bdnf (Catalog number—Mm04230607_s1), Rbbp4 (Catalog number—Mm00771401_g1), Bip (Catalog number—Mm00517691_m1), Trib3 (Catalog number—Mm00454879_m1), and Chac1 (Catalog number—Mm00509926_m1) with FAM labelled probe and Actin with VIC labelled probe all from Thermo Fisher Scientific on an Applied Biosystems 7500 Fast Real Time PCR System. For assessing gene expression of various specific Bdnf exons in mouse primary neurons, two step qPCR was used. Total RNA from primary cortical neurons was extracted using NucleoSpin RNA II Kit (Clontech, Catalog number—740955-250) and a total of 1.5 μg RNA was used to synthesize cDNA with the SuperScript® III First-Strand Synthesis System (Thermo Fisher Scientific, Catalog number—18080051). Quantitative RT-PCR was then performed using SYBR green (Thermo Fisher Scientific, Catalog number—4309155) on an Applied Biosystems 7500 Fast Real Time PCR System. Quantitative levels for all genes were normalized to the housekeeping gene GAPDH and expressed relative to the relevant control samples as fold change. The sequences of primers used in this part of the study were as follows: Bdnf I forward: […] (SEQ ID NO:9) and Bdnf I reverse: […] (SEQ ID NO:10); Bdnf II forward: […] (SEQ ID NO:11) and Bdnf II reverse: […] (SEQ ID NO:12); Bdnf IV forward #2: […] (SEQ ID NO:13) and Bdnf IV reverse #2: […] (SEQ ID NO:14); Bdnf VI forward: […] (SEQ ID NO:15) and Bdnf VI reverse: […] (SEQ ID NO:16); Bdnf VII forward: […] (SEQ ID NO:17) and Bdnf VII reverse: […] (SEQ ID NO:18) Bdnf IX forward: […] (SEQ ID NO:19) and Bdnf IX reverse: […] (SEQ ID NO:20); Gapdh forward #2: […] (SEQ ID NO:21) and Gapdh reverse #2: […] (SEQ ID NO: 22).
(Quantitative PCR measures a nucleic acid by following its amplification.)

Another data set relates to Bdnf. In words: Bdnf gene expression in mouse brain cortex after intraperitoneal injection. It counts as in vivo.
For data set [1] the following is noted: indicated by FDG PET studies; cited from earlier work.
The test system of the next data set is rats. As to conditions: dietary supplementation in rats; cited from earlier work.

`OC[C@H]1OC(O)C[C@@H](O)[C@@H]1O` (stereo partly drawn) [2-DG, (4R,5S,6R)-6-(hydroxymethyl)oxane-2,4,5-triol]: the “endogenous mRNA levels of six Bdnf transcript variants” value in the data set on Creb1, Bdnf, Rbbp4 (10 mM, 6 h, mouse primary neurons) is reported as “all transcript variants were upregulated”. The “Creb1 and Bdnf gene expression with AMPK phosphorylation knocked down” value in the data set with Creb1, Bdnf, Rbbp4 (adenoviral dominant negative AMPK, increasing concentrations of 2-DG) was “did not block 2-DG led increase in Creb1 and Bdnf gene expression”. In addition, the “Bdnf gene expression with dominant negative ATF4” value in the data set on Creb1, Bdnf, Rbbp4 (adenoviral dominant negative ATF4, 2-DG 6 h treatment) is “ATF4 knockdown blocked 2-DG led increase in Bdnf gene expression”. Moreover, in the data set on Creb1, Bdnf, Rbbp4 (increasing concentration, co-treated with 25 mM KCl, 6 h), the “plasticity gene program in depolarized primary neurons” value is listed as “dose dependent increase in plasticity gene program”. In addition, the “changes in Bdnf gene expression” value with Creb1, Bdnf, Rbbp4 (increasing concentrations 1-15 mM, primary cortical neurons) was “does dependent”. Besides, the “expression of plasticity genes Creb1, Bdnf and Rbbp4 (mRNA)” value with Creb1, Bdnf, Rbbp4 (increasing concentrations, 6 h, mouse primary neurons) was “dose-dependent increase”. Besides, in the data set with Bdnf (10 mg/Kg intraperitoneal injection for 6 h), the “Bdnf gene expression in mouse brain cortex” value is on record as “significant increase”. The “driving the adaptive plasticity program” value in the data set with Bdnf (intraperitoneal injection at 10 mg/Kg) is “sufficient in driving the adaptive plasticity program”. For the same molecule, in data set [1], the “crossing of the blood brain barrier” value was “can easily cross the blood brain barrier”. The “physiological effects (insulin level, body temperature, blood pressure, heart rate, plasma glucose level, stress adaptation)” value in the data set on rats was “mimic the physiological effects of calorie restriction”.
